Publication PMC10583352, “B7H3 targeting gold nanocage pH-sensitive conjugates for precise and synergistic chemo-photothermal therapy against NSCLC” (Journal of Nanobiotechnology, 2023)

What was measured:
NCI-H1299 lung tumor = assay: Histological examination (H&E, CD34 IHC) of tissues of xenograft-bearing mice; format: in vivo; conditions: xenograft-bearing mice after i.v. administration
NCI-H1299 cells [1] = assay: MTT cytotoxicity with/without NIR irradiation; format: cell-based, human; conditions: without irradiation, 24 h
Procedure: The cytotoxicity of B7H3/Dox@GNCs on tumor cells was assessed using the MTT assay. Briefly, NCI-H1299 cells (4 × 10^3 cells/well) were seeded in a 96-well plate and incubated for 12 h until the cells were completely attached. […] The cells were cultured for another 12 h and cell viability was determined using the MTT method.

[2] = test system: NCI-H1299 cell-derived xenograft; assay: Antitumor efficacy in NCI-H1299 cell-derived xenograft; format: in vivo, BALB/c nude mice; conditions: 14 day treatment
Procedure: The heterotopic xenograft mouse model of NSCLC was established by subcutaneous injection of 1.0 × 10^7 NCI-H1299 cells into the right dorsal side of BALB/c nude mice. The tumor size and body weight of the mice were measured and recorded every 2 days. The tumor volume (mm^3) was calculated using the formula: V = W^2 × L/2, where the width (W) and length (L) were measured using an electronic caliper. When the tumor volume reached 80–100 mm^3, mice were administered i.v. Dox at a dose of 3 mg/kg in the indicated formulation at 3 day intervals via the tail vein until euthanized.

NCI-H1299 cells [3] = assay: Cell cycle analysis (PI/RNase, flow cytometry); format: cell-based, human; conditions: without irradiation, 1 μg/mL Dox equivalent, 24 h
Procedure: Next, Dox, GNCs, B7H3@GNCs, Dox@GNCs, or B7H3/Dox@GNCs (1 μg/mL Dox equivalent) were added to the culture medium. […] After the cells were fixed, RNase A solution was added to degrade RNA, and cells were stained with PI. Finally, the samples were subjected to cell cycle analysis using flow cytometry. ROS was detected using the method described above, except that the cells were stained with DCFH-DA and analyzed using flow cytometry.

[4] = Pharmacokinetics after single i.v. administration in rats (plasma Dox, LC-MS/MS); format: in vivo, Sprague–Dawley rats; conditions: 3 mg/kg Dox equivalent, Mean ± SD, n = 6
Procedure: The pharmacokinetic properties of B7H3/Dox@GNCs were studied using 18 male Sprague–Dawley rats, weighing 200 ± 20 g. The rats were randomly divided into three groups (n = 6 per group) and administered Dox•HCl, Dox@GNCs, and B7H3/Dox@GNCs (3 mg/kg Dox equivalent dose) intravenously (i.v.) through the tail vein. Next, 300 μL blood samples were collected into heparinized tubes from the venous plexus at 0, 0.05, 0.13, 0.25, 0.5, 1, 1.5, 2, 4, 6, 8, 12, and 24 h. After centrifugation at 3000 × g for 15 min, the plasma samples were obtained and stored at – 80 ℃ until analysis.
(§1) The collected tissues were diced into small pieces and homogenized with three volumes of saline. Subsequently, 100 μL plasma and tissue homogenate samples were spiked with 10 μL epirubicin as the internal standard and vortex-mixed with 300 μL methanol for 5 min. After 15 min of centrifugation at 15,000 × g and 4 °C to precipitate proteins, 5 μL supernatant aliquots were analyzed using HPLC–MS/MS.

[5] = Biodistribution of Dox in tumor-bearing mice; format: in vivo, BALB/c athymic nude male mice; conditions: i.v. 3 mg/kg Dox
Procedure: as §1, with “A xenograft model was established using BALB/c athymic nude male mice (weight: 20 ± 2 g) and NCI-H1299 cells. […] The collected tissues were rinsed in ice-cold physiological saline to remove the superficial blood and other debris and stored at − 80 ℃ until analysis. The” for “The”

For `COc1cccc2c1C(=O)c1c(O)c3c(c(O)c1C2=O)C[C@@](O)(C(=O)CO)C[C@@H]3O[C@H]1C[C@H](N)[C@H](O)[C@H](C)O1.Cl` [Dox, doxorubicin hydrochloride], which “heart tissue histology (H&E)” value (NCI-H1299 lung tumor) is on record?
The value was “Dox-induced damage to the heart was observed”.

What about the IC50 (NCI-H1299 cells [1]) of the same compound?
Its IC50 is 2.50 µg/mL.

And the “body weight of mice” value [2]?
Its value is “drastic decrease in body weight”.

What about the tumor growth ([2]; xenograft mice, i.v.) of the same compound?
The tumor growth was “suppressed tumor growth”.

And the “effect on cell cycle” value (NCI-H1299 cells [3])?
The value was “stagnated in the S phase and G2/M phase”.

What about the CL [4] of the same compound?
Its CL is 0.13 ± 0.00 L/h/kg.

And the “MRT0-∞” value [4]?
The value was 9.43 ± 0.46 h.

And the T1/2 [4]?
Its T1/2 is 8.67 ± 0.34 h.

And the Vd [4]?
Its Vd is 1.64 ± 0.41 L/kg.

And the “Dox concentrations in heart, liver, lungs, spleen and kidneys versus Dox@GNCs and B7H3/Dox@GNCs groups” value [5]?
The value was “significantly higher”.
